Source: PubChem BioAssay (NCI)
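Where inhibition never reached the appropriate level, the endpoint shown equals the highest concentration tested. Otherwise, values were interpolated linearly from a five-concentration, 48-hour dose response in 96-well plates. The concentration for 50% growth inhibition is given as GI50. Definition used: TGI = concentration required for complete inhibition of growth.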

Columns and labels:
Assay in all cases: NCI tumour cell line growth inhibition, 48 h
A498 renal = test system: A498 renal
KM12 colon = test system: KM12 colon
MCF7 breast = test system: MCF7 breast
NCI-H226 lung = test system: NCI-H226 lung
NCI-H522 lung = test system: NCI-H522 lung
OVCAR-3 ovarian = test system: OVCAR-3 ovarian
SF-268 CNS = test system: SF-268 CNS
SF-295 CNS = test system: SF-295 CNS
SF-539 CNS = test system: SF-539 CNS
SK-MEL-28 melanoma = test system: SK-MEL-28 melanoma

Row | Compound | GI50 (A498 renal) | TGI (A498 renal) | GI50 (KM12 colon) | TGI (KM12 colon) | GI50 (MCF7 breast) | TGI (MCF7 breast) | GI50 (NCI-H226 lung) | TGI (NCI-H226 lung) | GI50 (NCI-H522 lung) | TGI (NCI-H522 lung) | GI50 (OVCAR-3 ovarian) | TGI (OVCAR-3 ovarian) | GI50 (SF-268 CNS) | TGI (SF-268 CNS) | GI50 (SF-295 CNS) | TGI (SF-295 CNS) | GI50 (SF-539 CNS) | TGI (SF-539 CNS) | GI50 (SK-MEL-28 melanoma) | TGI (SK-MEL-28 melanoma)
1 | COc1cc(C2C3=C(COC3=O)Nc3c2ccc2c3CCCC2)cc2c1OCO2 (stereo not given) | 0.0265 µM | 0.175 µM | 0.0356 µM | 0.412 µM | 0.0352 µM | 8.74 µM | 0.0343 µM | 0.185 µM | 0.0239 µM | 1.46 µM | 0.0233 µM | 0.0518 µM | 0.107 µM | 19.6 µM | 0.0323 µM | 35.5 µM | 0.0331 µM | 13.4 µM | 0.0547 µM | > 100 µM
2 | COc1cccc2c1C(=O)c1c(O)c3c(c(O)c1C2=O)C[C@@](O)(C(=O)CO)CC3OC1CC(O)C(O)C(C)O1 (stereo not given in full) | – | 1.29 µM | – | 7.49 µM | – | 21.6 µM | – | 0.219 µM | – | 1.5 µM | – | 11.3 µM | – | 1.81 µM | – | 1.16 µM | – | 0.795 µM | – | 2.28 µM
3 | NCCOc1ccccc1/C=C1\c2ccccc2-c2ccc([N+](=O)[O-])cc21 | 1.44 µM | 2.76 µM | 1.55 µM | 2.94 µM | 0.805 µM | 2.25 µM | 1.73 µM | 3.48 µM | 1.49 µM | 3.05 µM | 1.76 µM | 3.17 µM | 1.58 µM | 3.15 µM | 1.7 µM | 3.18 µM | 1.79 µM | 3.18 µM | 1.75 µM | 3.18 µM
4 | O=c1c(NO)c([N+](=O)[O-])cnn1-c1ccccc1 | – | 50 µM | – | 23.5 µM | – | 16.5 µM | – | 16.5 µM | – | 4.86 µM | – | 5.76 µM | – | 34.2 µM | – | 27 µM | – | 28.9 µM | – | 8.87 µM
5 | CCN(CC)CCN(Cc1ccc(F)cc1)c1ccc(CO)c(Cl)c1 | 1.55 µM | 3.18 µM | 18.8 µM | 75.9 µM | 4.55 µM | 85.5 µM | 0.235 µM | 0.713 µM | 27.9 µM | 68.2 µM | 14 µM | 35.9 µM | 76.5 µM | > 100 µM | 15.1 µM | 49.9 µM | 48.1 µM | > 100 µM | 17.2 µM | 32.9 µM
6 | C[C@]12CC[C@H]3[C@@H](C[C@@H]4SC(Nc5ccccc5)=N[C@@]45CC(O)CC[C@]35C)[C@@H]1CCC2O (stereo not given in full) | 2.16 µM | 5.66 µM | 1.68 µM | 3.12 µM | 1.8 µM | 4.73 µM | 2.4 µM | 5.57 µM | 1.9 µM | 4.5 µM | 1.28 µM | 2.62 µM | 1.66 µM | 3.32 µM | 1.06 µM | 2.98 µM | 1.19 µM | 2.62 µM | 1.68 µM | 3.99 µM
7 | CCCCNC(=O)Oc1ccc(/C(=C(/C)Cc2ccc(OC)cc2)c2ccc(OCCN3CCCC3)cc2)cc1 | 4.7 µM | 18.5 µM | 2.03 µM | 4.49 µM | 0.655 µM | 2.51 µM | 3.03 µM | 11.4 µM | 2.02 µM | 4.05 µM | 1.79 µM | 3.47 µM | 1.98 µM | 4.4 µM | 1.65 µM | 3.14 µM | 1.75 µM | 3.32 µM | 1.83 µM | 3.57 µM
8 | O=C1C(=O)c2ccccc2C(O)=C1CCCc1ccc(C2CCCCCC2)cc1 | 0.349 µM | 13.1 µM | 0.903 µM | 17.2 µM | 0.513 µM | > 49 µM | 2.2 µM | 31.7 µM | 2.64 µM | 32.7 µM | 0.781 µM | 16.3 µM | 0.625 µM | 26.7 µM | 0.558 µM | 30.2 µM | 2.56 µM | > 74.7 µM | 5.04 µM | > 93.3 µM
9 | Cc1[nH]c(-c2nc3ccccc3[nH]2)c(C)c1C(=O)NC(C)C1CCCCC1 (stereo not given) | 7.71 µM | 20.1 µM | 10.2 µM | 22.8 µM | 4.01 µM | 19.2 µM | 13.9 µM | 37.3 µM | 13.2 µM | 44 µM | 9.72 µM | 21.6 µM | 11.9 µM | 30.9 µM | 4.8 µM | 16.8 µM | 6.7 µM | 19.6 µM | 10.4 µM | 23.5 µM
10 | CCC(=O)Nc1ccccc1C#C/C=C\C#Cc1ccccc1C(F)(F)F | 1.68 µM | 10.7 µM | 2.02 µM | > 26.5 µM | 2.61 µM | > 36.1 µM | 6.91 µM | > 50 µM | 1.33 µM | 6.09 µM | 2.4 µM | 11.2 µM | 3.21 µM | 35.3 µM | 1 µM | 5.34 µM | 4.2 µM | 13.1 µM | 3.65 µM | > 50 µM
11 | CC1(C)C(=O)/C=C\C(=O)C(C)(C)C(=O)/C=C\C(=O)C(C)(C)C(=O)/C=C\C(=O)C(C)(C)C(=O)/C=C\C1=O | – | > 100 µM | – | > 72.8 µM | – | > 100 µM | – | > 86.5 µM | – | 20.2 µM | – | 48.7 µM | – | > 69.3 µM | – | 54.5 µM | – | 55.8 µM | – | > 58 µM
12 | O=[n+]1c2ccccc2n([O-])c2cc(Cl)ccc21 | 1.14 µM | 14.7 µM | 5.77 µM | 18.4 µM | 3.72 µM | 16.1 µM | 7.32 µM | 25.6 µM | 1.47 µM | 3.11 µM | 3.48 µM | 12.3 µM | 2.99 µM | 10.7 µM | 4.32 µM | 20.9 µM | 3.5 µM | 11.2 µM | 16.4 µM | 97.4 µM
13 | c1cncc(C2Nc3cccc4cccc(c34)N2)c1 | 30.9 µM | > 100 µM | 30.8 µM | 97.7 µM | 18.7 µM | 60.6 µM | 80.5 µM | > 100 µM | 14.6 µM | 35.1 µM | 17.8 µM | 37.1 µM | 33.8 µM | > 100 µM | 49.7 µM | > 100 µM | 39 µM | > 100 µM | 64 µM | > 100 µM
